Experimental data published in patent publication US20240327372A1, “PREPARATION OF PHENE[…] […] STEREOISOMERS THEREOF AND PRECURSORS THEREOF” (priority 2022, published 2024).
Read-outs that look alike come from different tables or passages of the source.

What was measured:
[1] = test system: rat forced swim test (FST); test: Rat forced swim test (FST); format: in vivo
Protocol: All FST studies are performed and scored by an experimenter blind to treatment group and according to standard protocols. Briefly, rats are placed in a circular plexiglass container filled with water. Water temperature is maintained at 22-25° C. and changed for every animal. Day 1 (Training) consists of a 15 min acclimation trial, and Day 2 (Testing, 24 h later) consists of the 5 min test. A time sampling procedure is employed where animals are observed every 5 seconds for the duration of the test session (60 counts or 5 minutes) and scored for immobility (defined as the failure to struggle), swimming (defined as a circular movement around the tank), or climbing (defined as an upwards escape behavior). Data are expressed as the percent of the testing session (e.g., the number of immobility counts divided by 60). A p-value less than 0.05 indicates statistical significance after typical statistical analyses (e.g., unpaired t-test or ANOVA).
To determine that the prodrug and/or enantiomer has an antidepressant-like effect and to compare it to methylone, rats are treated with each compound 30 min prior to testing. Additional tests are run 24, 72, 168 hours post-dose or longer.
Racemic methylone (10 mg/kg, IP) has a maximal antidepressant-like effect in the rat forced swim test (FST), reducing immobility by nearly 100% compared to vehicle treated controls. To determine whether one enantiomer of methylone could mimic the robust antidepressant-like effect of racemic methylone, rats were treated with a single dose of racemic methylone, (R)-methylone, (S)-methylone (all 10 mg/kg, IP) or vehicle 30 min before testing in the FST. […] Therefore, all of the activity of methylone appears to be driven by the activity of one enantiomer ((S)-methylone).

[2] = Pharmacokinetics of methylone after single IV, PO or IP administration, plasma LC-MS/MS; format: in vivo, male Sprague Dawley rats; settings: for MRT last: read-out: MRT0-last; for Cmax: rat plasma
Protocol: The pharmacokinetic properties of methylone after a single administration intravenously (IV), intraperitoneally (IP), or by oral gavage (PO) in male Sprague Dawley rats has been determined using a liquid chromatography tandem mass spectrometry (LC-MS/MS) method that has been established and validated for methylone in the rat. Rats (n=3 per group) received a single dose of methylone: 5 mg/kg IV, 15 mg/kg IP, or 15 mg/kg PO.
To investigate whether the prodrug extends the half-life or alters other basic pharmacokinetic properties of methylone (e.g., Cmax or Tmax), rats are treated with each prodrug IV, IP, or PO. For each compound, three groups of rats are treated as follows: For group 1, a single dose of methylone is administered to 3 male Sprague-Dawley rats by IV bolus at 5 mg/kg. For group 2, a single dose of methylone is administered to 3 male Sprague-Dawley rats by oral gavage (PO) at 15 mg/kg. For group 3, a single dose of methylone is administered to 3 male Sprague-Dawley rats by IP at 15 mg/kg. For all groups, blood samples are collected from each animal at 0.083, 0.25, 0.5, 1, 2, 4, 8, 12, and 24 hours post-dose for the determination of plasma concentrations. The plasma concentrations are quantified by liquid chromatography tandem mass spectrometry (LC-MS/MS). The bioanalytical assay has been established and validated, providing a lower limit of quantification (LLOQ) of 1 ng/mL and an upper limit of quantification (ULOQ) of 3000 ng/mL for methylone. The plasma concentration-time data are analyzed using Phoenix WinNonlin (version 8.3) to characterize the PK properties of the analyte. The non-compartmental analysis model and the linear/log trapezoidal method are applied to calculating the PK parameters.

[3] = test system: mouse model of PTSD; test: Fear extinction in a mouse model of PTSD; format: in vivo; settings: 30 mg/kg IP
Protocol: FIGS. 1A-1D: Methylone improves fear extinction recall in a mouse model of PTSD. (FIG. 1A) Schematic of experimental design. A single CS-US (tone-shock) pairing on day 1 was followed by 6 CS presentations in a novel context (context B). Methylone or saline vehicle was injected 30 min prior to extinction training on day 2. On day 3, the time spent freezing to the CS was quantified. […] (FIG. 1C) The time freezing before vs. during each of 6 cues on day 3 (to control for locomotor effects) are shown. There was a significant cue x drug interaction (F(5, 130)=2.409, p<0.05). […] N=12 for methylone group (30 mg/kg, IP, orange diamonds) and N=16 for saline control group (black squares). *p<0.05
Effective PTSD treatments facilitate the disassociation between a traumatic memory and the patient's fear response, making cues for the traumatic memory evoke less of a fear response. This is modeled in the mouse fear extinction paradigm which takes place over 3 days. On day 1 (fear conditioning), mice are trained to acquire a “traumatic memory,” namely associating the conditioned stimulus (CS, tone) to the unconditioned stimulus (US, foot shock). […] On day 3 (extinction recall), the mice are “asked” if that tone (CS) still elicits a fearful response, as measured by the time spent freezing when the tone is presented. […]

[4] = test system: open field test; settings: 5, 10, 20 mg/kg, SC; Štefková et al. 2017; cited from earlier work
[5] = test system: PTSD; settings: clinical case series of 21 individuals; cited from earlier work
[6] = rat; Elmore et al. 2017; cited from earlier work
[7] = self-administration, healthy volunteers; cited from earlier work
[8] = male, Sprague Dawley, rat, plasma, IP 15 mg/kg
[9] = male, Sprague Dawley, rat, plasma, IV 5 mg/kg
[10] = male, Sprague Dawley, rat, plasma, PO 15 mg/kg

CNC(C)C(=O)c1ccc2c(c1)OCO2 (stereo not shown) [Methylone, 3,4-methylenedioxy-N-methylacthinone]
Reduction of immobility compared to vehicle-treated controls ([1]; single dose 5 mg/kg): approximately 50%
Reduction of immobility compared to vehicle-treated controls ([1]; single dose 15 mg/kg): ~100%
Tmax ([2]; IP 15 mg/kg): 0.250 ± 0.000 h
AUC(0-t) [2, 8]: 4300 ± 1180 ng·h/mL
half-life [2, 8]: 0.8 ± 0.169 h
MRT last [2, 8]: 1.07 ± 0.211 h
AUC(0-t) [2, 9]: 1200 ± 88.2 ng·h/mL
C0 [2, 9]: 3020 ± 666 ng/mL
clearance [2, 9]: 68.3 ± 5.4 mL/min/kg
half-life [2, 9]: 0.362 ± 0.024 h
MRT last [2, 9]: 0.439 ± 0.026 h
Vd ([2]; male, Sprague Dawley, rat, plasma, IV 5 mg/kg, read-out: Vdss): 1.98 ± 0.23 L/kg
AUC(0-t) [2, 10]: 2760 ± 657 ng·h/mL
half-life [2, 10]: 3.23 ± 1.99 h
MRT last [2, 10]: 2.99 ± 0.467 h
Tmax ([2]; male, Sprague Dawley, rat, plasma, PO 15 mg/kg, read-out: Tmax): 1.33 ± 0.577 h
Cmax ([2]; male, Sprague Dawley, IP 15 mg/kg): 4230 ± 514 ng/mL
Cmax ([2]; male, Sprague Dawley, PO 15 mg/kg): 678 ± 243 ng/mL
Enhancement of fear extinction recall compared to saline controls ([3]; 30 min prior to extinction training): ~60%
Freezing time during the first cue on day 3 (extinction recall) compared to saline ([3]; p<0.05): significantly reduced
Thigmotaxis (time spent hugging the perimeter of the open field) [4]: reduce thigmotaxis
Patients with improved PTSD symptoms [5]: 81%
t1/2 [6]: 1 h
Heart rate [7]: increase in heart rate
Systolic and diastolic blood pressure [7]: significant increase
